Test results taken from US20200147060A1, “COMPOSITIONS AND METHODS OF TREATING CANCER” (UNIVERSITY OF IOWA RESEARCH FOUNDATION, priority 2018, published 2020).
“Also recorded” adds a separate entry of the source. Where two headings read alike, the source gives them in different places.

Assays:
A375 melanoma cells = assay: Clonogenic survival assay; format: cell-based, human; settings: for development / acquisition of resistance to MAPKi (clonogenic survival): secondary agent combined with MAPKih (Vem 5 μM; Cobi 0.1 μM), PBA 2 mM, HCQ 12 μM
Procedure: To determine if the observed MAPKi-induced GSH imbalance plays a causal role in development of resistance, clonogenic survival assays were conducted in which cells were treated with GSH-synthesis inhibitor buthionine sulfoximine (BSO) (0.5 mM) with and without Vem. BSO depletes cellular GSH by inhibiting GSH synthesis via competitive inhibition of gamma-glutamylcysteine synthetase.

A375 cells = assay: Expression of ER-stress/UPR markers (GRP78/BiP, eIF2α); format: cell-based, human
Procedure: The GSH/GSSG ratio is known to be a fundamental buffering parameter of the ER, and ER-stress responses have been implicated in the initiation of autophagy and acquisition of resistance to MAPKih. Thus, the impact of MAPKi-induced GSH imbalance on the expression of ER-stress response proteins was assessed. Changes in UPR markers GRP78 (BiP) and eI2Fa (phospho-eI2Fa to inactivated eI2Fa) were determined by western blot in A375 cells treated with Vem alone and in combination with Cobi (FIGS. 2A-C). […] To explore the role of MAPKi-induced GSH imbalance on activation of UPR, similar time-course experiments were performed to monitor the expression of UPR markers with continuous MAPKi with and without GSH depletion (using BSO). Depletion of the GSH pool using BSO in this way rendered the cells incapable of initiating the ER-stress response and no increase in the expression of GRP78 was seen when A375 cells were treated continuously with Vemurafenib in the presence of BSO (FIG. 2D).

[1] = cited from earlier work; for tolerability in patients: reported clinical trials
A375-CG-LC3B cells = assay: Autophagic flux (mCherry:EGFP ratio) by flow cytometry; format: cell-based, human
Source text: (§1) UPR responses signal the activation of cytoprotective pathways such as autophagy. The role of GSH in mediating the acquisition of resistance was further explored by examining autophagy and autophagic flux responses to MAPKi in A375 metastatic melanoma cells.
Briefly, A375-CG-LC3B cells were obtained using a retroviral vector containing a coding sequence for a mCherry-EGFP-LC3B tandem protein (pBABE-puro mCherry-EGFP-LC3B, #22418, Addgene). The retrovirus was packaged in GP2-293 cells by co-transfection of 1 μg of viral DNA constructs and 1 μg of envelope plasmid (pVSV-G) in 20 μL PolyFect transfection reagent (Qiagen) for 48 hours at 37° C., 5% CO2. Virus-rich media was collected, aliquoted, and stored at −80° C. Cells were infected using the virus-rich media in DMEM (high glucose) for 12 h followed by incubation in complete media (high-glucose DMEM with 10% FBS) for 24 h. […] Autophagy was quantified as autophagic flux (Af) using A375-CG-LC3B cells.
Where Fmcherry is mcherry fluorescence measured using the 532 nm laser and FGFP is GFP fluorescence measured using the 488 nm laser on LSR II. […] Samples were analyzed on an LSR II flow cytometer (BD). Af was calculated for live, non-apoptotic (Hoechst negative, Annexin V negative) population using the derived parameter function in Flow Jo software (V10.4). […]

[2] = system: MAPKi-resistant 451LuBR melanoma xenografts; assay: 451LuBR (BRAFi resistant melanoma) xenograft mouse model; format: in vivo, mice
Procedure: FIGS. 5A-5F. Pharmacologically Inhibiting Autophagy and ER-stress Simultaneously in Combination with MAPKih Improve Overall Survival in Vivo. Simultaneous inhibition of autophagy and ER-stress with MAPKih (Vem and Vem+Cobi) improves outcome in melanoma tumor bearing mice. (A-D) Simultaneous inhibition of ER-stress using PBA (250 mg kg^−1 twice a day) and autophagic flux using (HCQ 10 mg kg^−1 twice a day) with MAPKih (Vem 16 mg kg^−1 twice a day; Cobi 1 mg kg^−1 once a day) improves outcome in mice bearing MAPKi-sensitive A375 melanoma xenografts (N=13). (A) estimated tumor growth curves in response to PBA and HCQ with Vem; (B) estimated tumor growth curves in response to PBA and HCQ with Vem+Cobi; (C) overall survival in response to PBA and HCQ with Vem; (D) overall survival in response to PBA and HCQ with Vem+Cobi. (E, F) Simultaneous inhibition of ER-stress using PBA (250 mg kg^−1 twice a day) and autophagic flux using (HCQ 6.6 mg kg^−1 twice a day) with MAPKih (Vem 10 mg kg^−1 twice a day) improves outcome in mice bearing MAPKi-resistant 451LuBR melanoma xenografts (N=10); (E) estimated tumor growth curves in response to PBA and HCQ with Vem; and (F) overall survival in response to PBA and HCQ with Vem.
The potential for simultaneous inhibition of ER-stress and autophagy in overcoming resistance to MAPKih was further explored using a 451LuBR (BRAFi resistant melanoma) cell-line xenograft mouse model treated in the same way. Predictably, administering Vem alone had no effect of tumor growth and overall survival, establishing that these tumors are resistant to BRAFi.

451 Lu melanoma cells = assay: Clonogenic survival assay; format: cell-based; settings: ME added to the combination of vem and BSO
Procedure: FIGS. 7A-7L. Reduced Thiols Play a Vital Role in Development of Resistance to MAPKi. (A-E) Reduced thiols play a vital role in development of resistance to MAPKi in vitro. Changes in (A) cellular concentration of reduced glutathione (GSH, nmoles/mg protein) (B) cellular concentration of oxidized glutathione (GSSG, nmoles/mg protein) of A375 melanoma cells when treated with buthionine sulfoximine (BSO, 0.5 mM) and 2-mercaptoethanol (ME, 150 μM) in presence of vemurafenib (Vem, 5 μM) (N=3). Difference in clonogenic survival of A375 (N=2, n=3) and 451 Lu (N=1, n=3) melanoma cells when treated with vem alone compared to (C) vem in combination with ME and (D) vem in combination with BSO. (E) Addition of ME to the combination of vem and BSO rescues clonogenic survival in A375 and 451 Lu melanoma cells. […] Spider plots show individual tumor growth rates in A375 tumor bearing mice (N=8) when (F) untreated; (G) treated with BSO (15 mM in drinking water); (H) treated with AIN-76A rodent diet mixed with vemurafenib (PLX4720); (I) combination of AIN-76A rodent diet mixed with vemurafenib (PLX4720) with BSO. (J) Levels of total cellular GSH in tumor tissue obtained from untreated mice and mice treated with BSO. (K) Progression Free Survival (PFS) and (L) Overall survival (OS). ±SEM; *p=0.01 to 0.05, **p=0.001 to 0.01 ****P<0.0001.

[3] = system: A375 BRAFV600E mutant melanoma cells; assay: Glutathione (GSH, GSSG) levels in cells under prolonged MAPKi; format: cell-based, human
Source text: (§2) Initial response rates to MAPKih (BRAFih and BRAFih+MEKih) are often significant (and sometimes remarkable), but melanoma almost invariably (within months) develops resistance to these treatments. It has been further documented that continuous MAPKi brings about changes in cellular metabolism accompanied with a shift in metabolism from glycolysis to oxidative phosphorylation in vitro. Changes were examined in metabolism and oxidative state of A375 BRAFV600E mutant melanoma cells from initiation of BRAFih (Vem, 5 μM) through the acquisition of resistance (approximately 30 days). […] Changes in cellular metabolism coincided with a nearly identical pattern in the cellular redox state of the cell when quantified by the method of DHE oxidation by fluorescence intensity. […] Considering the critical relationship between cellular responses to oxidative stress and the glutathione cellular redox buffer, the changes in glutathione (GSH) levels and the ratio of GSH to the oxidized form (GSH:GSSG) with prolonged MAPKi in the A375 cells treated with Vem (5 μM) were evaluated over the same time period (FIG. 1D).

[4] = system: A375 BRAFV600E mutant melanoma cells; assay: Oxygen consumption / extracellular acidification (Seahorse metabolic profiling); format: cell-based, human; settings: Vem 5 μM continuous; plateaued within approximately 2 weeks
Procedure: (A) The ratio of basal metabolic oxygen consumption (BMOC)/extracellular acidification rate (ECAR) in response to continuous exposure to 5 μM Vem (N=6) as determined by Seahorse metabolic profiling; (B) Measurement of cellular pro-oxidant levels as determined by dyhdroethidium (DHE) oxidation in response to 5 μM Vem (N=3); (C) GSSG:GSH in response to Vem (N=2); (D) total cellular GSH in response to Vem (N=2).

[5] = system: A375 BRAFV600E mutant melanoma cells; assay: DHE oxidation (cellular redox state) by fluorescence intensity; format: cell-based, human; settings: Vem 5 μM; subsided with acquisition of resistance
Source text: as §2

[6] = system: A375 metastatic melanoma cells; assay: Autophagosome area fraction (TEM) and LC3B-II expression; format: cell-based, human
Source text: as §1

[7] = system: MAPKi-sensitive A375 melanoma xenografts; assay: A375 xenograft bearing mice treated with MAPKih with or without PBA and HCQ; format: in vivo; settings: Vem 16 mg/kg twice a day, Cobi 1 mg/kg once a day, PBA 250 mg/kg twice a day i.p., HCQ 10 mg/kg twice a day
Procedure: To further explore the potential of simultaneous pharmacological inhibition of ER-stress and autophagy in preventing resistance to MAPKih, A375 xenograft bearing mice (FIGS. 5A-D) were treated with MAPKih or MAPKih in combination with PBA (250 mg kg-1 per dose, twice a day, i.p.) and HCQ (10 mg kg-1 per dose, twice per day, oral gavage). […] The experimental groups included MAPKi by Vem (BRAFih) (16 mg kg-1 per dose, twice a day, oral gavage) alone and in combination with Cobi (MAPKih) (1 mg kg-1 per dose, once a day, oral gavage).

metastatic melanoma = settings: cited from earlier work; for progression-free survival (time tumor progression is slowed): melanoma patients, average
[8] = Vem 10 mg/kg, PBA 250 mg/kg, HCQ 6.6 mg/kg, each twice a day, compared to control
[9] = A375 cells, prolonged MAPKi (Vem 5 μM)

**Q.** What does the source list for `CCCCS(=N)(=O)CCC(N)C(=O)O` [BSO, L-buthionine-[S,R]-sulfoximine]?
**A.** clonogenic survival (A375 melanoma cells; BSO 0.5 mM alone, without MAPKih): did not affect; development / acquisition of resistance to MAPKi (clonogenic survival) (A375 melanoma cells; BSO 0.5 mM): completely inhibits acquisition of resistance; also recorded: prevents acquisition of resistance; expression of GRP78 (BiP) (A375 cells; continuous Vem in the presence of BSO 0.5 mM): diminished; tolerability in patients [1]: well-tolerated

**Q.** Which results are given for `CCN(CCO)CCCC(C)Nc1ccnc2cc(Cl)ccc12` (stereo not shown) [HCQ, Hydroxychloroquine]?
**A.** development / acquisition of resistance to MAPKi (clonogenic survival) (A375 melanoma cells; BSO 0.5 mM): prevented resistance; autophagic flux induced by MAPKi (A375-CG-LC3B cells; secondary agent (BSO 0.5 mM, PBA 2 mM, HCQ 12 μM) added to MAPKih, versus MAPKih alone): decreased; median / overall survival [2, 8]: significantly enhanced; complete response (complete remissions) ([2]; share of mice): 20%; tolerability in patients [1]: well tolerated

**Q.** For `OCCS` [ME, 2-mercaptoethanol], which “clonogenic survival on addition of ME to vem and BSO” value (A375 melanoma cells; ME 150 μM, BSO 0.5 mM, Vem 5 μM) is on record?
**A.** reversed; also recorded: rescues

**Q.** What about the “clonogenic survival on addition of ME to vem and BSO” value (451 Lu melanoma cells) of the same molecule?
**A.** rescues

**Q.** Which tolerated dose ([1]; patients suffering from urea cycle disorders) does the source give for `O=C(O)CCCc1ccccc1` [PBA, phenylbutyric acid] here?
**A.** up to 27 g per day

**Q.** And the tolerability in patients [1]?
**A.** safely administered

**Q.** With `CCCS(=O)(=O)Nc1ccc(F)c(C(=O)c2c[nH]c3ncc(-c4ccc(Cl)cc4)cc23)c1F` [Vem, Vemurafenib] as the molecule, how does the “total GSH concentration after adaptation” value ([3]; >170 d Vem treatment, versus untreated control cells) read?
**A.** re-equilibrated to levels comparable to untreated control cells

**Q.** And the “depletion of glutathione (GSH)” value [3, 9]?
**A.** 68%

**Q.** What about the “increase in oxidized glutathione (GSSG)” value [3, 9] of the same molecule?
**A.** 30 fold

**Q.** And the “ratio of oxygen consumption linked to basal mitochondrial respiration (OCR) and extracellular acidification rate (ECAR)” value [4]?
**A.** initial increase

**Q.** What about the “oxidation of DHE” value [5] of the same molecule?
**A.** initial increase

**Q.** What about the “expression of ER-stress markers” value (A375 cells; continuous MAPKi, later decrease to pre-treatment levels) of the same molecule?
**A.** gradual increase

**Q.** And the “area fraction of cells covered by autophagosomes (TEM)” value ([6]; Vem 5 μM)?
**A.** significant increase

**Q.** What about the “expression of autophagic flux marker LC3B-II” value ([6]; continuous MAPKi by Vem) of the same molecule?
**A.** significant increases

**Q.** And the autophagic flux (A375-CG-LC3B cells; continuous MAPKi (Vem 5 μM; Cobi 0.1 μM) versus untreated cells)?
**A.** increased

**Q.** And the “rate of tumor growth” value [7]?
**A.** similar

**Q.** What about the “median / overall survival” value [2, 8] of the same molecule?
**A.** no effect

**Q.** What about the tumor growth rate [2, 8] of the same molecule?
**A.** no effect

**Q.** What about the “progression-free survival (time tumor progression is slowed)” value (metastatic melanoma; listed as Vemurafenib) of the same molecule?
**A.** about 7.2 months

**Q.** And the “progression-free survival (time tumor progression is slowed)” value (metastatic melanoma; listed as vemurafenib)?
**A.** 7.2 months

**Q.** For `CC(C)(C)c1nc(-c2cccc(NS(=O)(=O)c3c(F)cccc3F)c2F)c(-c2ccnc(N)n2)s1` [dabrafenib, Dabrafenib], which “time until resistance occurs” value (metastatic melanoma; clinical trial data) is on record?
**A.** 6 to 7 months
